For one data set, the system named is HIV. In words: inhibition of HIV replication in vitro (HIV Inhib.). Format: cell-based.
The next data set is described as follows: PBMC toxicity. As to conditions: human.
The test system of a further data set is splenocytes. The data set can be described thus: mitogen proliferation assay (splenocytes of treated mice, Con A). Type of data set: in vivo. As to conditions: 10 mg/kg iv. As for the experimental part: For the attached Tables, the mitogen proliferation assay was performed by treating mice (male or female) with various amounts of the aminosterol test compounds. Some time later (typically between 2 hours and 14 days), the mice are sacrificed and their spleens removed. Splenocytes are harvested and cultured in the presence of between 1-10 μg/ml of Con A (Sigma) for 48 hours. See James Morgan, "Monoclonal Antibody Production," Modern Methods in Pharmacology, pp. 29-67, eds., Spector and Back, 1988. This excerpt is entirely incorporated herein by reference. Cell proliferation is monitored either by direct cell counting or by measurement of the incorporation of radioactive thymidine.

Data set [1] can be described thus: inhibition of MSI-1436 binding. As to conditions: 3H-MSI-1436 at 20 μg/mL.
In data set [2] the test system is Xenopus laevis Stages 59-60 tadpoles. In words: tadpole assay. Type of data set: in vivo. As to conditions: for vascular effect in tadpole (in words): about 60 minutes.
For the next data set, the system named is melanoma cells. In words: MTT assay for cell number. To be noted: Tables III-V; read-out: MTT assay IC50. Type of data set: cell-based. As for the experimental part: In Table V, several aminosterol esters show efficacy in killing melanoma cells in the MTT assay.
The MTT assay for cell number is performed as follows. Cells are counted on a hemocytometer and diluted to a concentration of approx. 10,000 cells/well (55,000 cells/ml×0.18 ml). Cells are then plated in a 96 well microtiter plate and allowed to attach overnight. The next day, compounds are serially diluted from 1000 to 15.6 μg/ml and run in duplicate. 20 μl of each dilution are transferred to the pre-seeded microtiter plates. The final concentrations are 100 to 1.56 μg/ml. The plates are then incubated for 48 hours at 37° C. in 5% CO2. After 48 hours, MTT solution is added. The plate is re-incubated for 4 hours. Readings are done by removing all but 30 μl of media and MTT solution and dissolving the formazan crystals with DMSO. The formazan is dissolved by mixing on a rotating plate at low speed for about 30 minutes. Absorbance of converted dye is measured at a wavelength of 560 nm with background subtraction at 630 nm. The percent survival is determined by a comparison between the mean absorbance of the duplicate test lanes and the growth control.
For orientation: Formazan colour is commonly taken as a measure of viable cells.

In data set [3] the test system is human ovarian carcinoma, SKOV3. In words: anticancer activity against SKOV3. Type of data set: cell-based.
Data set [4] concerns chick embryo vitelline capillaries. The data set can be described thus: chick embryo vitelline capillary regression assay. Type of data set: in vivo. As to conditions: for effect on vitelline capillaries (in words): 3- to 5-day chick embryo. As for the experimental part: Using the chick embryo vitelline capillaries assay, various aminosterol compounds were tested for their ability to induce capillary regression. Each compound was applied in 0.1 ml of 15% Ficol 400 and PBS onto the embryo, and vascular regression was assessed after 60 minutes. These tests were conducted by the chorioallantoic membrane anti-angiogenesis assay by applying the material to be assayed to 3 day old fertilized chick embryos in the manner described by Wilks et al., "Inhibition of Angiogenesis With Combination Angiostatic Steroids and Suramin," Radiation Biology, Vol. 60, Nos. 1/2, 1991, pp. 73-77, which article is entirely incorporated herein by reference.
The 3-day chick embryo consists of an embryonic disc from which numerous vessels emerge and return, forming a "figure 8"-shaped structure--the embryo in the center with vascular loops extending outward over both poles. […] Following a lag period of around 15 minutes, the constriction of continuity between capillary and secondary vessels, generally on the "venous" side, was observed. Continued pulsatile blood flow progressed, resulting in a "swelling" of the blind tube, followed by a pinching off of the remaining connection and formation of an enclosed vascular sac resembling a "blood island." This process progressed until only the largest vessels remained intact.

For data set [5], the system named is bacteria, fungi and protozoa. To be noted: cited from earlier work.
The subject of data set [6] is human microvascular cells. In words: endothelial cell cord formation assay (human microvascular cells, VEGF and bFGF, collagen matrix). Format: cell-based. The source says:
Endothelial cells have the capacity in vitro to form tubular aggregates resembling capillaries in various early stages of formation. This conversion occurs under relatively specific conditions, in which essential growth factors along with an effective substratum are provided. It has been shown that both the interaction of growth factors with the endothelial cell and its attachment to a substratum activate the NHE. The activation of this exchanger is believed to be required for subsequent morphologic transformation of the endothelial cell into a multicellular tubular structure.
To assess the effect of compounds on the cord-like structures formed by human microvascular cells when plated in the presence of VEGF (Vascular Endothelial Growth Factor) and basic fibroblast growth factor on a collagen matrix, a standard cord formation assay was performed using the method described by Goto, et al., "Synergistic Effects of Vascular Endothelial Growth Factor and Basic Fibroblast Growth Factor on the Proliferation and Cord Formation of Bovine Capillary Endothelial Cells Within Collagen Gels," Laboratory Investigation, Vol. 69, No. 5, 1993, pp. 508-517. This article is entirely incorporated herein by reference.

In brackets after ≈: the same amount, converted by molar mass. Entries after “also recorded” stand apart in the source; their conditions may differ.

Broadly, the IC50 is the midpoint of a concentration-inhibition curve. Turning to `CC(C)[C@@H](CC[C@@H](C)[C@H]1CC[C@H]2[C@@H]3[C@H](O)C[C@H]4C[C@@H](NCCCNCCCCNCCCN)CC[C@]4(C)[C@H]3CC[C@]12C)OS(=O)(=O)O` [Compound 1436, reference compound], the “% Inhib of HIV” value with HIV (140 nM, 0.14 µM) came to 78%. Further, the inhibition at 0.14 µM in the data set on HIV (Human immunodeficiency virus 1, 140 nM, read-out: % Inhib of HIV) came out at 76%. In the data set “PBMC toxicity”, this compound gave a cytotoxicity at 14 µM of 0%. Besides, the “Rel. potency to MSI-1436, Mitogen Proliferation Assay” value in the data set with splenocytes was found to be 1. Besides, the “% Inhib. of MSI-1436 Binding @ 100 μg/mL” value in [1] is given as 82%. In addition, the “vascular effect in tadpole (in words)” value in [2] (10 μg/ml where stated) is “common vascular occlusive effect”. Further, in the data set with melanoma cells, the IC50 amounted to 7.8 µg/mL (≈ 11.4 µM).
Turning to `CC(C)C(CO)(CC[C@@H](C)[C@H]1CC[C@H]2[C@@H]3[C@H](O)C[C@H]4C[C@@H](NCCCNCCCCN)CC[C@]4(C)[C@H]3CC[C@]12C)OS(=O)(=O)O` (stereo partly drawn) [Compound 1437], the “time to shedding of larval skin” value in data set [2] (10 μg/ml) was at most 60 min. Besides, the “effect on embryonic epithelium / epithelial shedding (in words)” value in data set [2] (10 μg/ml where stated) is reported as “dramatic effect on the embryonic epithelium covering the tadpole tail; also recorded: larval skin was observed to shed off in a sheet”. In data set [3], the “anticancer activity (in words)” value is “exhibit anticancer activity”.
For `CC(C)[C@@H](CC[C@@H](C)[C@H]1CC[C@H]2[C@@H]3[C@H](O)C[C@H]4C[C@@H](NCCCNCCCCN)CC[C@]4(C)[C@H]3CC[C@]12C)OS(=O)(=O)O` [Squalamine, squalamine, reference compound], the “effect on vitelline capillaries (in words)” value is “disrupt vitelline capillaries in 3- to 5-day chick embryos” in data set [4]; “dramatic and rapid effect on capillary vessel integrity; also recorded: especially active” in data set [4] (listed as squalamine). Besides, the “hemorrhage, hemolysis and heartbeat of embryo (in words)” value in data set [4] (3-day chick embryo) is reported as “embryonic heart continued to beat vigorously; also recorded: No hemorrhage was seen; also recorded: absence of hemolysis”. Besides, the “antibiotic activity (in words)” value in [5] is “broad-spectrum antibiotic, killing bacteria, fungi and protozoa”. For the same compound, in [2] (10 μg/ml), the “unaffected functions in tadpole (in words)” value is “continued heartbeat; also recorded: unaltered blood flow through the fine capillaries of the hands and feet”. For the same compound, the “vascular effect in tadpole (in words)” value in data set [2] (10 μg/ml where stated) was “blood flow through the capillaries of the tail shut down; also recorded: enhanced regression of the most distal aspects of the tail; also recorded: common vascular occlusive effect”. For the same compound, in data set [6] (Homo sapiens, Endothelial cell, text to the table, read-out: concentration at which cord formation is inhibited), the minimal effective concentration is around 0.1 µg/mL. The “effect on cell viability or proliferation (in words)” value in data set [6] (at these concentrations) is “does not appear to profoundly affect cell viability or proliferation”.

(Values after patent US5856535A, “Aminosterol ester compounds” (priority 1996, dated 1999).)
